Measurements reported in ChEMBL document CHEMBL1153463 (Bioorg Med Chem Lett, 2009).

Tests used:
[1] = system: Respiratory syncytial virus; test: Antiviral activity against RSV assessed as inhibition of viral replication by cell based assay; format: functional, organism-based; settings: human respiratory syncytial virus
[2] = Metabolic stability in human liver mocrosomes; settings: liver microsomes
[3] = Permeability across human Caco-2 cells

SMILES | EC50 [1] [nM] | half-life [2] [min] | Papp [3] [×10⁻⁶ cm/s]
COCCCn1c(CN2C(=O)/C(=N/OC)c3ccccc32)nc2ccccc21 | 30 | 16 | 
CC(C)(C)O/N=C1/C(=O)N(Cc2nc3ccccc3n2CCCCO)c2ccccc21 | 1130 |  | 
CS(=O)(=O)CCCn1c(CN2C(=O)/C(=N/OCCF)c3ccncc32)nc2ccccc21 | 12.5 | > 100 | 1
COCCCn1c(CN2C(=O)/C(=N/OCS(=O)(=O)O)c3ccccc32)nc2ccccc21 | 46 |  | 
C=CCCO/N=C1/C(=O)N(Cc2nc3ccccc3n2CCCOC)c2ccccc21 | 260 |  | 
C=CCCCO/N=C1/C(=O)N(Cc2nc3ccccc3n2CCCOC)c2ccccc21 | 192 |  | 
CC(C)CCn1c(CN2C(=O)/C(=N/OCc3ccc(C(=O)N(C)C)cc3)c3ccccc32)nc2ccccc21 | 9 |  | 
CS(=O)(=O)c1ccc(CO/N=C2/C(=O)N(Cc3nc4ccccc4n3CCCCO)c3ccccc32)cc1 | 12 | 13 | 15.2
COCCCn1c(CN2C(=O)/C(=N/OC(C)C)c3ccccc32)nc2ccccc21 | 257 |  | 
COCCCn1c(CN2C(=O)/C(=N/OC3CCOCC3)c3ccccc32)nc2ccccc21 | 206 |  | 
COCCCn1c(CN2C(=O)/C(=N/OCC(N)=O)c3ccccc32)nc2ccccc21 | 154 | 21 | 1.5
COCCCn1c(CN2C(=O)/C(=N/OCCCN3CCCCC3)c3ccccc32)nc2ccccc21 | 290 |  | 
COCCCn1c(CN2C(=O)/C(=N/OCc3ccncc3)c3ccccc32)nc2ccccc21 | 242 | 0.6 | 21.4
CO/N=C1/C(=O)N(Cc2nc3ccccc3n2CCCCF)c2cnccc21 | 106 | 26 | 12.8
CC(=O)OCCCCn1c(CN2C(=O)/C(=N/OCc3ccc(S(C)(=O)=O)cc3)c3ccccc32)nc2ccccc21 | 5 |  | 
COCCCn1c(CN2C(=O)/C(=N/OCC(O)CC#N)c3ccccc32)nc2ccccc21 (configuration not stated) | 65 |  | 
CCO/N=C1/C(=O)N(Cc2nc3ccccc3n2CCCOC)c2ccccc21 | 59 |  | 
N#CCCCn1c(CN2C(=O)/C(=N/OCC(N)=O)c3ccccc32)nc2ccccc21 | 45 |  | 3
CCCO/N=C1/C(=O)N(Cc2nc3ccccc3n2CCCOC)c2ccccc21 | 147 |  | 
C=CCO/N=C1/C(=O)N(Cc2nc3ccccc3n2CCCS(C)(=O)=O)c2cnccc21 | 12.4 |  | 
COCCCn1c(CN2C(=O)/C(=[N+](/[O-])C3CCCCC3)c3ccccc32)nc2ccccc21 | 285 |  | 
COCCCn1c(CN2C(=O)/C(=N/OC3CCCCC3)c3ccccc32)nc2ccccc21 | 652 |  | 
CC(=O)OCCCCn1c(CN2C(=O)/C(=N/O)c3cccnc32)nc2ccccc21 | 49.7 | 1.3 | 1.2
C=CCO/N=C1/C(=O)N(Cc2nc3ccccc3n2CCCOC)c2ccccc21 | 428 |  | 
COCCCn1c(CN2C(=O)/C(=N/OCCCCOC(C)=O)c3ccccc32)nc2ccccc21 | 62 |  | 

SMILES | EC50 [1] [nM] | half-life [2] [min] | Papp [3] [×10⁻⁶ cm/s]
COCCCn1c(CN2C(=O)/C(=N/OCCN(C)C)c3ccccc32)nc2ccccc21 | 370 |  | 
CO/N=C1/C(=O)N(Cc2nc3ccccc3n2CCCCO)c2cnccc21 | 30.9 | 84 | 9.8
COCCCn1c(CN2C(=O)/C(=N/OCCCC#N)c3ccccc32)nc2ccccc21 | 79 |  | 
CC(=O)OCCCCn1c(CN2C(=O)/C(=N/OCCF)c3cccnc32)nc2ccccc21 | 54.6 |  | 
COCCCn1c(CN2C(=O)/C(=N/OCCN3CCCCC3)c3ccccc32)nc2ccccc21 | 682 |  | 
COCCCn1c(CN2C(=O)/C(=N/OCc3ccccn3)c3ccccc32)nc2ccccc21 | 238 |  | 
CC(C)CCn1c(CN2C(=O)/C(=N/Oc3ccccc3)c3ccccc32)nc2ccccc21 | 375 |  | 
CC(C)CCn1c(CN2C(=O)/C(=N/OCc3ccc(C(=O)O)cc3)c3ccccc32)nc2ccccc21 | 16 |  | 
CN(C)CCn1c(CN2C(=O)/C(=N/OCc3ccc(C(=O)O)cc3)c3ccccc32)nc2ccccc21 | 16.5 |  | 
CCC(CC)/[N+]([O-])=C1\C(=O)N(Cc2nc3ccccc3n2CCCOC)c2ccccc21 | 898 |  | 
COCCCn1c(CN2C(=O)/C(=N/OCC(=O)O)c3ccccc32)nc2ccccc21 | 295 |  | 
COCCCn1c(CN2C(=O)/C(=N/OC(CC(O)O)C(O)O)c3ccccc32)nc2ccccc21 (configuration not stated) | 19 |  | 
CO/N=C1/C(=O)N(Cc2nc3ccccc3n2CCCCOC(C)=O)c2ccccc21 | 30 | 1.5 | 
COCCCn1c(CN2C(=O)/C(=N/OCC(F)(F)F)c3ccccc32)nc2ccccc21 | 2740 | 3.2 | 65.2
O=C1/C(=N/OCCF)c2ccncc2N1Cc1nc2ccccc2n1CCCCF | 61.9 | 38 | 15.8
COCCCn1c(CN2C(=O)/C(=N/OCC3CCC3)c3ccccc32)nc2ccccc21 | 246 |  | 
COCCCn1c(CN2C(=O)/C(=N/OCc3ccc(C(=O)N(C)C)cc3)c3ccccc32)nc2ccccc21 | 30 |  | 23.7
O=C1/C(=N/O)c2ccncc2N1Cc1nc2ccccc2n1CCCCF | 17.9 | 100 | 2.7
COC(=O)c1ccc(CO/N=C2/C(=O)N(Cc3nc4ccccc4n3CCN(C)C)c3ccccc32)cc1 | 23 | 0.6 | 
CC(C)CCn1c(CN2C(=O)/C(=N/Oc3ccc(Br)cc3)c3ccccc32)nc2ccccc21 | 705 |  | 
C#CCCCO/N=C1/C(=O)N(Cc2nc3ccccc3n2CCCOC)c2ccccc21 | 64 |  | 
CCCCCO/N=C1/C(=O)N(Cc2nc3ccccc3n2CCCOC)c2ccccc21 | 188 |  | 
CO/N=C1/C(=O)N(Cc2nc3ccccc3n2CCCC#N)c2ncccc21 | 92.8 | 28 | 16
COCCCn1c(CN2C(=O)/C(=[N+](/[O-])C(C)C)c3ccccc32)nc2ccccc21 | 230 |  | 
COCCCn1c(CN2C(=O)/C(=N/OCC3CCCO3)c3ccccc32)nc2ccccc21 (configuration not stated) | 152 |  | 

SMILES | EC50 [1] [nM] | half-life [2] [min] | Papp [3] [×10⁻⁶ cm/s]
CS(=O)(=O)CCCn1c(CN2C(=O)/C(=N/OCc3ccc(S(C)(=O)=O)cc3)c3cnccc32)nc2ccccc21 | 10600 | 200 | 
CO/N=C1/C(=O)N(Cc2nc3ccccc3n2CCCCO)c2ccccc21 | 10 |  | 
COC(=O)c1ccc(CO/N=C2/C(=O)N(Cc3nc4ccccc4n3CCC(C)C)c3ccccc32)cc1 | 23 | 0.6 | 
COCCCn1c(CN2C(=O)/C(=N/OCCF)c3ccccc32)nc2ccccc21 | 71 |  | 
O=C1/C(=N/OCC(F)(F)F)c2cccnc2N1Cc1nc2ccccc2n1CCCCO | 79.8 | 65 | 15.4
CO/N=C1/C(=O)N(Cc2nc3ccccc3n2CCC(C)C)c2ccccc21 | 87 |  | 
N#CCCCn1c(CN2C(=O)/C(=N/O)c3cccnc32)nc2ccccc21 | 22.7 | 100 | 4.2
COC(=O)c1ccc(CO/N=C2/C(=O)N(Cc3nc4ccccc4n3CCNS(C)(=O)=O)c3ccccc32)cc1 | 51 |  | 
COCCCn1c(CN2C(=O)/C(=N/OCC3CC3)c3ccccc32)nc2ccccc21 | 96 |  | 
COCCCn1c(CN2C(=O)/C(=N/OCCC3CCCCC3)c3ccccc32)nc2ccccc21 | 384 |  | 
CCN(CC)C(=O)CO/N=C1/C(=O)N(Cc2nc3ccccc3n2CCCOC)c2ccccc21 | 26 |  | 
CC(C)CCn1c(CN2C(=O)/C(=N/OCc3ccccc3)c3ccccc32)nc2ccccc21 | 202 |  | 
N#CCCCn1c(CN2C(=O)/C(=N/OCCF)c3cccnc32)nc2ccccc21 | 57.3 | 55 | 15.5
COCCCn1c(CN2C(=O)/C(=N/OCc3cccnc3)c3ccccc32)nc2ccccc21 | 141 |  | 
COCCCn1c(CN2C(=O)/C(=N/OCc3ccc(C(=O)OC)cc3)c3ccccc32)nc2ccccc21 | 50 |  | 
CS(=O)(=O)c1ccc(CO/N=C2/C(=O)N(Cc3nc4ccccc4n3CCCC#N)c3ccncc32)cc1 | 10200 | 29 | 
CO/N=C1/C(=O)N(Cc2nc3ccccc3n2CCCCO)c2ncccc21 | 31.2 | 31 | 14.1
COCCCn1c(CN2C(=O)/C(=N/OCCCN(C)C)c3ccccc32)nc2ccccc21 | 240 |  | 
CC(C)CCn1c(CN2C(=O)/C(=N/O)c3ccccc32)nc2ccccc21 | 10 |  | 
N#CCCCn1c(CN2C(=O)/C(=N/OCC(F)(F)F)c3ccccc32)nc2ccccc21 | 66 | 18 | 
CCCCO/N=C1/C(=O)N(Cc2nc3ccccc3n2CCCOC)c2ccccc21 | 261 |  | 
COCCCn1c(CN2C(=O)/C(=N/OCCCF)c3ccccc32)nc2ccccc21 | 125 |  | 
CCC(CC)O/N=C1/C(=O)N(Cc2nc3ccccc3n2CCCOC)c2ccccc21 | 935 |  | 
